Results reported in patent publication US8192962B2, “Processes for detecting toxic substances” (Daikin Industries, Ltd., priority 2001, dated 2012).

Test system: Transport facilitation protein genes
Assay: DNA chip mRNA expression in yeast, transport facilitation protein genes (Table 5)
Format: cell-based, Saccharomyces cerevisiae S288C
Experimental: Yeast (Saccharomyces cerevisiae S288C (α SUC2mal mel gap2 CUP1)) were incubated at 25° C. on YPD medium (yeast extract 1%, polypepton 2%, glucose 2%). One of toxic chemical substances was added to the cells at logarithmic growth phase, and the cells were further incubated for two hours. Cells were cultured without any chemical substance in the same condition, and were used as control. Concentrations of the chemical substances were defined to inhibit the growth of the yeast but not lead to death.
After completion of the incubation, the culture was centrifuged to collect the cells. To the cells, sodium acetate buffer (50 mM sodium acetate, 10 mM EDTA, 1% SDS) was added, and the mixture was shaken at 65° C. for five minutes, followed by returning to room temperature, and obtaining the supernatant, of which the procedures were repeated two times. To the supernatant, ½ amount of a solution of phenol/chloroform was added, and the mixture was centrifuged to give a supernatant, which was added with an equal amount of chloroform, and the mixture was centrifuged to give a supernatant. To the supernatant, an equal amount of isopropanol containing 0.3 M sodium acetate was added, and the mixture was allowed to stand at room temperature for 30 minutes, after which the mixture was centrifuged to give a sediment of the whole RNAs. Seventy % ethanol was added to the sediment, and the mixture was again centrifuged to give a sediment, which was then dried and dissolved in water. mRNA was isolated from the whole RNAs as followings. In view of the fact that a poly A chain is attached to the 3′ terminus of mRNA, a polynucleotide having a poly T structure which was immobilized on the surface of latex beads was used to trap the mRNA, and then the mRNA was washed and eluted with spine column (Oligotex-dT30<Super>mRNA Purification Kit, Takara). Reverse transcription of the mRNA was conducted with a reverse transcriptase (Super Script II Reverse Transcriptase; catalogue No. 18064-014, GibcoBRL) using fluorescence-labeled nucleotides to give cDNAs that were introduced with Cy3-dUTP or Cy5-dUTP during the reverse transcription.
The labeled cDNAs were dissolved in TE buffer (10mM Tris-HCl/1 mM EDTA, pH8.0), and the solution was dropped on the DNA chip containing the whole genes of yeast (DNA Chip Research Inc. Japan) so that the cDNAs were hybridized on the DNA chip at 65° C. for over 12 hours. The fluoresces intensity of the DNA chip was read with a scanner, and the ratio relative to the fluorescence intensity resulting from the absence of chemical substance was estimated as the following, which is shown in Tables 1 to 9: […]

## [Cl][Pb][Cl] [(4), PbCl2]
Yeast gene YBL030C
  The level of expressed mRNA in the presence of chemical substance/The level of expressed mRNA in the absence of chemical substance: 0.9
Yeast gene YBL099W
  The level of expressed mRNA in the presence of chemical substance/The level of expressed mRNA in the absence of chemical substance: 1.4
Yeast gene YBR052C
  The level of expressed mRNA in the presence of chemical substance/The level of expressed mRNA in the absence of chemical substance: 2.6
Yeast gene YBR068C
  The level of expressed mRNA in the presence of chemical substance/The level of expressed mRNA in the absence of chemical substance: 2.5
Yeast gene YBR127C
  The level of expressed mRNA in the presence of chemical substance/The level of expressed mRNA in the absence of chemical substance: 1.1
Yeast gene YBR132C
  The level of expressed mRNA in the presence of chemical substance/The level of expressed mRNA in the absence of chemical substance: 1.8
Yeast gene YBR207W
  The level of expressed mRNA in the presence of chemical substance/The level of expressed mRNA in the absence of chemical substance: 2.0
Yeast gene YBR293W
  The level of expressed mRNA in the presence of chemical substance/The level of expressed mRNA in the absence of chemical substance: 1.8
Yeast gene YBR294W
  The level of expressed mRNA in the presence of chemical substance/The level of expressed mRNA in the absence of chemical substance: 2.6
Yeast gene YBR295W
  The level of expressed mRNA in the presence of chemical substance/The level of expressed mRNA in the absence of chemical substance: 1.1
Yeast gene YBR298C
  The level of expressed mRNA in the presence of chemical substance/The level of expressed mRNA in the absence of chemical substance: 2.3
Yeast gene YCL025C
  The level of expressed mRNA in the presence of chemical substance/The level of expressed mRNA in the absence of chemical substance: 1.7
Yeast gene YCL038C
  The level of expressed mRNA in the presence of chemical substance/The level of expressed mRNA in the absence of chemical substance: 1.6
Yeast gene YCR037C
  The level of expressed mRNA in the presence of chemical substance/The level of expressed mRNA in the absence of chemical substance: 0.8
Yeast gene YCR098C
  The level of expressed mRNA in the presence of chemical substance/The level of expressed mRNA in the absence of chemical substance: 2.0
Yeast gene YDL128W
  The level of expressed mRNA in the presence of chemical substance/The level of expressed mRNA in the absence of chemical substance: 1.0
Yeast gene YDL198C
  The level of expressed mRNA in the presence of chemical substance/The level of expressed mRNA in the absence of chemical substance: 1.4
Yeast gene YDL210W
  The level of expressed mRNA in the presence of chemical substance/The level of expressed mRNA in the absence of chemical substance: 1.1
Yeast gene YDL245C
  The level of expressed mRNA in the presence of chemical substance/The level of expressed mRNA in the absence of chemical substance: 2.2
Yeast gene YDR038C
  The level of expressed mRNA in the presence of chemical substance/The level of expressed mRNA in the absence of chemical substance: 0.9
Yeast gene YDR039C
  The level of expressed mRNA in the presence of chemical substance/The level of expressed mRNA in the absence of chemical substance: 0.9
Yeast gene YDR086C
  The level of expressed mRNA in the presence of chemical substance/The level of expressed mRNA in the absence of chemical substance: 1.4
Yeast gene YDR270W
  The level of expressed mRNA in the presence of chemical substance/The level of expressed mRNA in the absence of chemical substance: 1.3
Yeast gene YDR298C
  The level of expressed mRNA in the presence of chemical substance/The level of expressed mRNA in the absence of chemical substance: 1.3
Yeast gene YDR342C
  The level of expressed mRNA in the presence of chemical substance/The level of expressed mRNA in the absence of chemical substance: 5.7
Yeast gene YDR343C
  The level of expressed mRNA in the presence of chemical substance/The level of expressed mRNA in the absence of chemical substance: 4.6
Yeast gene YDR345C
  The level of expressed mRNA in the presence of chemical substance/The level of expressed mRNA in the absence of chemical substance: 2.6
Yeast gene YDR387C
  The level of expressed mRNA in the presence of chemical substance/The level of expressed mRNA in the absence of chemical substance: 2.2
Yeast gene YDR497C
  The level of expressed mRNA in the presence of chemical substance/The level of expressed mRNA in the absence of chemical substance: 1.3
Yeast gene YEL027W
  The level of expressed mRNA in the presence of chemical substance/The level of expressed mRNA in the absence of chemical substance: 1.1
Yeast gene YEL063C
  The level of expressed mRNA in the presence of chemical substance/The level of expressed mRNA in the absence of chemical substance: 1.3
Yeast gene YEL065W
  The level of expressed mRNA in the presence of chemical substance/The level of expressed mRNA in the absence of chemical substance: 0.4
Yeast gene YER053C
  The level of expressed mRNA in the presence of chemical substance/The level of expressed mRNA in the absence of chemical substance: 1.7
Yeast gene YFL011W
  The level of expressed mRNA in the presence of chemical substance/The level of expressed mRNA in the absence of chemical substance: 3.3
Yeast gene YFL041W
  The level of expressed mRNA in the presence of chemical substance/The level of expressed mRNA in the absence of chemical substance: 1.2
Yeast gene YFL050C
  The level of expressed mRNA in the presence of chemical substance/The level of expressed mRNA in the absence of chemical substance: 2.2
Yeast gene YFL054C
  The level of expressed mRNA in the presence of chemical substance/The level of expressed mRNA in the absence of chemical substance: 2.2
Yeast gene YGL006W
  The level of expressed mRNA in the presence of chemical substance/The level of expressed mRNA in the absence of chemical substance: 2.6
Yeast gene YGL008C
  The level of expressed mRNA in the presence of chemical substance/The level of expressed mRNA in the absence of chemical substance: 0.9
Yeast gene YGL104C
  The level of expressed mRNA in the presence of chemical substance/The level of expressed mRNA in the absence of chemical substance: 1.8
Yeast gene YGL167C
  The level of expressed mRNA in the presence of chemical substance/The level of expressed mRNA in the absence of chemical substance: 1.3
Yeast gene YGL255W
  The level of expressed mRNA in the presence of chemical substance/The level of expressed mRNA in the absence of chemical substance: 0.8
Yeast gene YGR055W
  The level of expressed mRNA in the presence of chemical substance/The level of expressed mRNA in the absence of chemical substance: 0.7
Yeast gene YGR065C
  The level of expressed mRNA in the presence of chemical substance/The level of expressed mRNA in the absence of chemical substance: 1.1
Yeast gene YGR082W
  The level of expressed mRNA in the presence of chemical substance/The level of expressed mRNA in the absence of chemical substance: 1.0
Yeast gene YGR096W
  The level of expressed mRNA in the presence of chemical substance/The level of expressed mRNA in the absence of chemical substance: 4.6
Yeast gene YGR138C
  The level of expressed mRNA in the presence of chemical substance/The level of expressed mRNA in the absence of chemical substance: 1.2
Yeast gene YGR191W
  The level of expressed mRNA in the presence of chemical substance/The level of expressed mRNA in the absence of chemical substance: 1.5
Yeast gene YGR197C
  The level of expressed mRNA in the presence of chemical substance/The level of expressed mRNA in the absence of chemical substance: 1.0
Yeast gene YGR224W
  The level of expressed mRNA in the presence of chemical substance/The level of expressed mRNA in the absence of chemical substance: 1.2
